Experimental data: US20060148732A1, “Inhibition of NF-kappaB by triterpene compositions” (priority 2000, published 2006)

Legend:
[1] = molecular target: T1, NF-κB (Homo sapiens, UniProt P19838+Q04206); experiment: In vitro NF-κB DNA binding (EMSA on extracts); type: biochemical
T1 construct: endogenous in cells; host or cells: Jurkat cells stimulated with TNF; nuclear extract
Description: (underline indicates NF-κB binding sites) for 15 min at 37° C. The incubation mixture included 3 μg of poly (dI:dC) in a binding buffer (25 mM HEPES, pH 7.9, 0.5 mM EDTA, 0.5 mM DTT, 1% NP-40, 5% glycerol, 50 mM NaCl). The DNA-protein complex was separated from the free oligonucleotide on a 7.5% polyacrylamide gel. The specificity of NF-κB-DNA binding was examined by competition with a double stranded mutated oligonucleotide, unlabeled oligonucleotide and by supershift of the band by anti-p65 antibody. The radioactive bands from dried gels were visualized on a PhosphoImager (Molecular Dynamics, Sunnyvale, Calif.) and quantitated using ImageQuant Software.
Monoterpene/triterpene glycoside G Inhibits NF-κB-DNA Binding. […] Therefore, the inventors analyzed the effect of monoterpene/triterpene glycoside G1 on the ability of active NF-κB to bind to DNA in a cell-free system. Nuclear extracts from TNF-stimulated cells were incubated with increasing concentrations of monoterpene/triterpene glycoside G1. […] Deoxycholate (DOC) is known to dissociate NF-κB from IκB, thereby making it available in an active nuclear form.

[2] = test system: mitochondrial fraction of Jurkat cells; experiment: Cytochrome c release in a cell free system; type: biochemical, human; details: isolated mitochondria
Description: Isolation of the Submitochondrial Fraction. Jurkat cells (1.5-2.0×10^7) were suspended in 1 ml sucrose buffer (250 mM sucrose in 30 mM Tris-HCl pH 7.4) and transferred into an N2 cavitation chamber (PARR Instruments Company, Moline, Ill.). The cells were subjected to N2 cavitation (300 psi for 5 min) as per the manufacturer's instructions. Under these conditions most of the cell membrane was disrupted with no change in the mitochondrial respiratory activity. Next, DNA and the nuclear fraction were removed by centrifugation (1500 g, 30 sec). The supernatant was further centrifuged (16000 g, 10 min) and the pellet was used as the submitochondrial fraction.
To observe if monoterpene/triterpenoid saponins directly affected mitochondria to induce apoptosis, experiments were carried out using avicin G in a cell free system. Mitochondria were isolated from Jurkat cells by the N2 cavitation method.

[3] = test system: COX-2 in RAW 264.7 cells; experiment: LPS-induced COX-2 expression (western blot); type: cell-based; details: RAW264.7; 2 μg/ml 16 h; LPS 100 ng/ml
Description: Induction and Measurement of iNOS and COX-2. RAW 264.7 cells (0.5×10^6/ml) were plated in 100 mm dishes and treated with F094 or monoterpene/triterpene glycosides (2 μg/ml) for 16 h. Next, the cells were exposed to 100 ng/ml of LPS for 24 h. Cells were lysed in a buffer containing 50 mM Tris, pH 7.4, 100 mM NaCl, 0.5% NP-40, 10 μg/ml leupeptin, 5 μg/ml aprotinin, and 100 μM PMSF. 70 μg of cellular protein were then loaded on a 7.5% SDS-polyacrylamide gel and electrotransferred onto a nitrocellulose membrane. Levels of iNOS and COX-2 were analyzed by Western blot analysis using rabbit anti-iNOS (Santa Cruz) and goat anti-COX-2 antibodies respectively.

[4] = Stability in solution during purification; type: physicochemical; details: dilute acid solutions vs water at 40° C.
From the text: The fraction D (45% D1) from the PFP Prep column was first fractionated on a Waters C-18 column (25×100 mm). The mobile phase was 61% methanol in water with 0.1% TFA. […] A sample of D1 with 100% chromatographic purity (FIG. 35) was produced by further fractionation of the impure D1 on YMC C18-Aq column with 33% acetonitrile/water with 0.1% TFA as the mobile phase. […] Therefore, 0.1% TFA was included in solvents during the purification of D1.

T1 sequence (Q04206 whole entry): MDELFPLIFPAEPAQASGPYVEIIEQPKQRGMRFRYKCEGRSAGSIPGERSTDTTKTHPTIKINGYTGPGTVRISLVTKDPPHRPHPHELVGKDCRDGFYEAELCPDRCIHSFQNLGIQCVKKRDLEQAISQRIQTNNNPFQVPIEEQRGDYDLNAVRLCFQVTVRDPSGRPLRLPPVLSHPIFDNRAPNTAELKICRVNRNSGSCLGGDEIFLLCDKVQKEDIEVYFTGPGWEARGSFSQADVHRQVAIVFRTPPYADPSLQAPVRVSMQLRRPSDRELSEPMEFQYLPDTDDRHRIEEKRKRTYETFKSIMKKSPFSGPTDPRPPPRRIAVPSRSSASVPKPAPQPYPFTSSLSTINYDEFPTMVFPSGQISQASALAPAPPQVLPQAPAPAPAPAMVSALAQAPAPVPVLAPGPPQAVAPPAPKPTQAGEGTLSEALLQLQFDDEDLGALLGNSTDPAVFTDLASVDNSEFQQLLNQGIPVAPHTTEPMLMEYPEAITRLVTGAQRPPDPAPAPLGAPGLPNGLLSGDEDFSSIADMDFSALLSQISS
T1 sequence (P19838 1-433 limits assumed): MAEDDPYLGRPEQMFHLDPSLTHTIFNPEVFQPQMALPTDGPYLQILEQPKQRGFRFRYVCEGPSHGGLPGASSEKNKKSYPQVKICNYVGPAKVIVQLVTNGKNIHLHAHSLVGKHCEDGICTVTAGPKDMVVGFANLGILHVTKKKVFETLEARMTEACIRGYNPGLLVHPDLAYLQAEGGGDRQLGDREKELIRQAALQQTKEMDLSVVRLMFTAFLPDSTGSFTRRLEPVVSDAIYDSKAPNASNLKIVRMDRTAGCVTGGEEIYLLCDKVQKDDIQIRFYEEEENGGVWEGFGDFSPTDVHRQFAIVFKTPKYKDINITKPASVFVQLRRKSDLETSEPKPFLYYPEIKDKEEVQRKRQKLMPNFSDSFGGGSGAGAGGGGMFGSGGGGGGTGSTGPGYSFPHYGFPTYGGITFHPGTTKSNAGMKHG

Compound	DNA binding of DOC (0.8%) activated NF-κB ([1]; cytoplasmic extracts of treated cells)	binding of NF-κB to DNA ([1]; nuclear extracts from TNF-stimulated cells, 30 min at 37° C.)	peak of cytochrome c release ([2]; 2 μg/ml)	start of cytochrome c release ([2]; 2 μg/ml)	concentration achieving most of the cytochrome c release ([2]; 10 min)	levels of LPS-induced COX-2 [3]	stability in solution [4]
C=C[C@](C)(O)CC/C=C(\C)C(=O)O[C@H]1[C@H](O)[C@@H](O)[C@H](O[C@@](C)(C=C)CC/C=C(\CO)C(=O)O[C@H]2C[C@]3(C(=O)O[C@@H]4O[C@H](CO)[C@@H](O)[C@H](O)[C@H]4O[C@@H]4O[C@@H](C)[C@H](O[C@@H]5O[C@@H](CO)[C@H](O)[C@H]5O)[C@@H](O[C@@H]5O[C@H](CO)[C@@H](O)[C@H](O)[C@H]5O)[C@H]4O)[C@H](O)C[C@]4(C)C(=CC[C@@H]5[C@@]6(C)CC[C@H](O[C@@H]7O[C@H](CO[C@@H]8O[C@H](C)[C@H](O)[C@H](O)[C@H]8O[C@@H]8OC[C@@H](O)[C@H](O)[C@H]8O)[C@@H](O)[C@H](O)[C@H]7NC(C)=O)C(C)(C)[C@@H]6CC[C@]54C)[C@@H]3CC2(C)C)O[C@@H]1C [Fraction G1]	decreased DNA binding	inhibited the binding of NF-κB to DNA in a dose-dependent manner	5 to 10 min	a minute	0.5 to 2.0 µg/mL	decreases the levels of LPS-induced iNOS and COX-2 sharply	–
C=C[C@](C)(O)CC/C=C(\CO)C(=O)O[C@H]1[C@H](O)[C@@H](O)[C@H](O[C@@](C)(C=C)CC/C=C(\CO)C(=O)O[C@H]2C[C@]3(C(=O)O[C@@H]4O[C@H](CO)[C@@H](O)[C@H](O)[C@H]4O[C@@H]4O[C@@H](C)[C@H](O[C@@H]5O[C@@H](CO)[C@H](O)[C@H]5O)[C@@H](O[C@@H]5O[C@H](CO)[C@@H](O)[C@H](O)[C@H]5O)[C@H]4O)[C@H](O)C[C@]4(C)C(=CC[C@@H]5[C@@]6(C)CC[C@H](O[C@@H]7O[C@H](CO[C@@H]8O[C@H](C)[C@H](O)[C@H](O)[C@H]8O[C@@H]8OC[C@@H](O)[C@H](O)[C@H]8O)[C@@H](O)[C@H](O)[C@H]7NC(C)=O)C(C)(C)[C@@H]6CC[C@]54C)[C@@H]3CC2(C)C)O[C@@H]1C [Fraction D1]	–	–	–	–	–	–	more stable in dilute acid solutions than in water
